Results: patent US6858428B2, “Human and animal cell culture medium containing antithrombin III for suppressing cell death” (Agency of Industrial Science and Technology, priority 1999, dated 2005)

Tested on: hepatoma cell line HepG2
Experiment: Survival of hepatoma cell line HepG2 in serum-free culture (viable cell count after 3 days)
Type: cell-based
Conditions: for Survival rate: HepG2, DMEM without fetal bovine serum; for Effect in controlling cell death (in words): HepG2, serum-free medium, concentration not given
Procedure: Two mL cell suspension of hepatoma cell line HepG2 dispersed in trypsin (5×10^5 cells) were inoculated on six multi-well plates and pre-culture by using Dulbecco's modified Eagle medium (DMEM) containing 5% fetal bovine serum, 1.6 g/L sodium hydrogencarbonate, 0.584 g/L L-glutamine, and 0.08 g/L kanamycin sulfate at 37° C. in a 5% CO2 gas phase. […] The viable cell count was assayed after 3 days of culture.
(§1) The hepatoma cell line HepG2 was pre-cultured in the same manner as in Example 1. After 1 day, the broth was recovered, the cell surfaces were washed with serum-free medium, and the culture was continued for another 3 days with the addition of medium containing 5%, 0% fetal bovine serum, or 2 mL of fresh medium comprising antithrombin III added in concentrations ranging from 1 to 25 μg/mL to media containing no fetal bovine serum (0%). The viable cell count was assayed after 3 days of culture.
as §1, with “III or any of-various synthetic protease inhibitors given in Table 4” for “III”, “added” for “added in concentrations ranging from 1 to 25 μg/mL”

Compound: NCCc1ccc(S(=O)(=O)F)cc1 [AEBSF, reference compound]
- Survival rate (additive 50 μg/ml): 92.2%
- Effect in controlling cell death (in words): effective in controlling cell death

Compound: N=C(N)c1ccc(CS(=O)(=O)F)cc1 [APMSF, reference compound]
- Survival rate (additive 40 μg/ml): 74.0%

Compound: CC(=O)N[C@@H](CC(C)C)C(=O)N[C@@H](CC(C)C)C(=O)N[C@H](C=O)CCCNC(=N)N [Leupeptin, reference compound]
- Survival rate (additive 0.5 μg/ml): 65.5%

Compound: Cc1ccc(S(=O)(=O)N[C@@H](CCCCN)C(=O)CCl)cc1 [TLCK, reference compound]
- Survival rate (additive 50 μg/ml): 89.3%
- Effect in controlling cell death (in words): effective in controlling cell death

Compound: IGF-1: growth factor reported as survival factor
- Survival rate (additive 50 ng/ml): 45.3%

Compound: Insulin: hormone reported as survival factor
- Survival rate (additive 0.1 μM): 53.0%

Compound: Orosomucoide: typical serum protein used for comparison
- Survival rate (additive 48.8 μg/ml): 61.5%
- Effect in controlling cell death (in words): virtually no effect in controlling cell death

Compound: PDGF-AA: growth factor reported as survival factor
- Survival rate (additive 50 ng/ml): 54.0%

Compound: Transferrin: typical serum protein used for comparison
- Survival rate (additive 150 μg/ml): 62.8%
- Effect in controlling cell death (in words): virtually no effect in controlling cell death

Compound: aFGF: growth factor reported as survival factor
- Survival rate (additive 10 ng/ml): 59.6%

Compound: bFGF: growth factor reported as survival factor
- Survival rate (additive 10 ng/ml): 55.2%

Compound: α 1-antitrypsin: typical serum protein used for comparison
- Survival rate (additive 150 μg/ml): 72.7%
- Effect in controlling cell death (in words): virtually no effect in controlling cell death
